Measured values as given in patent publication US20100184751A1, “HETEROCYCLIC COMPOUNDS FOR THE TREATMENT OF TUBERCULOSIS” (priority 2007, published 2010).
Where a name gives a salt, the structure may show the parent alone. Read-outs that look alike come from different tables or passages of the source.

Tested on: Mycobacterium tuberculosis H37Rv
Experiment: Mycobacterium tuberculosis H37Rv inhibition assay (resazurin MIC)
Assay type: cell-based
Settings: ATCC 25618 / H37Rv, read-out: MIC value
[1] = 144 h, H37Rv strain (ATCC25618), Middlebrook 7H9, 37° C., six days, resazurin fluorescence after 48 hours
[2] = H37Rv strain (ATCC25618), Middlebrook 7H9, 37° C., six days, resazurin fluorescence after 48 hours

Structure (SMILES) | MIC [1] | MIC [2] | MIC | MIC (144 h)
O=c1ccc2ncc(F)c3c2n1C[C@@]3(O)CN1CCC(NCc2ccc3nonc3c2)CC1 [Example 48, (4S)-4-({4-[(2,1,3-benzoxadiazol-5-ylmethyl)amino]-1-piperidinyl}methyl)-3-fluoro-4-hydroxy-4,5-dihydro-7H-pyrrolo[3,2,1-de]-1,5-naphthyridin-7-one] | ≤ 4 mg/L | ≤ 1.7 mg/L |  | 
O=C1CSc2ccc(CNC3CCN(CC4(O)Cn5c(=O)ccc6ncc(Cl)c4c65)CC3)nc2N1 (racemic) [Example 14, (4R/S)-3-Chloro-4-hydroxy-4-[(4-{[(3-oxo-3,4-dihydro-2H-pyrido[3,2-b][1,4]thiazin-6-yl)methyl]amino}-1-piperidinyl)methyl]-4,5-dihydro-7H-pyrrolo[3,2,1-de]-1,5-naphthyridin-7-one Dihydrochloride] | ≤ 4 mg/L |  | ≤ 1.7 mg/L | 
O=c1ccc2ncc(F)c3c2n1C[C@@]3(O)CN1CCC(NCc2ccc3nsnc3c2)CC1 [Example 35, (4S)-4-({4-[(2,1,3-benzothiadiazol-5-ylmethyl)amino]-1-piperidinyl}methyl)-3-fluoro-4-hydroxy-4,5-dihydro-7H-pyrrolo[3,2,1-de]-1,5-naphthyridin-7-one] | ≤ 4 mg/L | ≤ 1.7 mg/L |  | 
O=c1ccc2ncc(F)c3c2n1C[C@@]3(O)CN1CCC(NCc2ncc3c(n2)OCCO3)CC1 [Example 69, (4S)-4-({4-[6,7-dihydro[1,4]dioxino[2,3-d]pyrimidin-2-ylmethyl]amino]-1-piperidinyl}methyl)-3-fluoro-4-hydroxy-4,5-dihydro-7H-pyrrolo[3,2,1-de]-1,5-napthyridin-7-one (E1 Enantiomer Series) Dihydrochloride] | ≤ 4 mg/L |  |  | 
O=C1COc2cc(Cl)c(CNC3CCN(C[C@]4(O)Cn5c(=O)ccc6ncc(F)c4c65)CC3)nc2N1 [Example 40, (4S)-4-[(4-{[(7-chloro-3-oxo-3,4-dihydro-2H-pyrido[3,2-b][1,4]oxazin-6-yl)methyl]amino}-1-piperidinyl)methyl]-3-fluoro-4-hydroxy-4,5-dihydro-7H-pyrrolo[3,2,1-de]-1,5-naphthyridin-7-one] | ≤ 4 mg/L | ≤ 1.7 mg/L |  | 
O=c1ccc2ncc(F)c3c2n1C[C@@]3(O)CN1CCC(NCc2ccc3scnc3c2)CC1 [Example 42, (4S)-4-({4-[(1,3-benzothiazol-5-ylmethyl)amino]-1-piperidinyl}methyl)-3-fluoro-4-hydroxy-4,5-dihydro-7H-pyrrolo[3,2,1-de]-1,5-naphthyridin-7-one] | ≤ 4 mg/L |  |  | 
O=c1ccc2ncc(F)c3c2n1CC3(F)CN1CCC(NCc2cc3c(nn2)OCCC3)CC1 (stereo not drawn) [Example 33, 4-({4-[(6,7-Dihydro-5H-pyrano[2,3-c]pyridazin-3-ylmethyl)amino]-1-piperidinyl}methyl)-3,4-difluoro-4,5-dihydro-7H-pyrrolo[3,2,1-de]-1,5-naphthyridin-7-one Dihyclrochloride (E1 Enantiomer)] | ≤ 4 mg/L |  |  | 
O=c1ccc2ncc(F)c3c2n1C[C@@]3(O)CN1CCC(NCc2cnc3ccccc3c2)CC1 [Example 37, (4S)-3-fluoro-4-hydroxy-4-({4-[(3-quinolinylmethyl)amino]-1-piperidinyl}methyl)-4,5-dihydro-7H-pyrrolo[3,2,1-de]-1,5-naphthyridin-7-one] | ≤ 4 mg/L | ≤ 1.7 mg/L |  | 
O=C1COc2cnc(CNC3CCN(C[C@]4(O)Cn5c(=O)ccc6ncc(F)c4c65)CC3)nc2N1 [Example 70, (4S)-3-fluoro-4-hydroxy-4-[(4-{[(7-oxo-6,7-dihydro-1H-pyrimido[5,4-b][1,4]oxazin-2-yl)methyl]amino}-1-piperidinyl)methyl]-4,5-dihydro-7H-pyrrolo[3,2,1-de]-1,5-naphthyridin-7-one Dihydrochloride] |  |  | ≤ 1.7 mg/L | ≤ 4 mg/L
O=c1ccc2ncc(F)c3c2n1C[C@@]3(O)CN1CCC(NCc2cc3c(cn2)OCCS3)CC1 [Example 8A, (4S)-4-({4-[(2,3-Dihydro[1,4]oxathiino[2,3-c]pyridin-7-ylmethyl)amino]-1-piperidinyl}methyl)-3-fluoro-4-hydroxy-4,5-dihydro-7H-pyrrolo[3,2,1-de]-1,5-naphthyridin-7-one (E1 Enantiomer Series) Dihydrochloride] | ≤ 4 mg/L | ≤ 1.7 mg/L |  | 
O=C1COc2ccc(CNC3CCN(CC4(F)Cn5c(=O)ccc6ncc(F)c4c65)CC3)nc2N1 (stereo not drawn) [Example 32, 3,4-Difluoro-4-[(4-{[(3-oxo-3,4-dihydro-2H-pyrido[3,2-b][1,4]oxazin-6-yl)methyl]amino}-1-piperidinyl)methyl]-4,5-dihydro-7H-pyrrolo[3,2,1-de]-1,5-naphthyridin-7-one Dihydrochloride (E1 Enantiomer)] |  |  | ≤ 1.7 mg/L | ≤ 4 mg/L
O=c1ccc2ncc(F)c3c2n1C[C@@]3(O)CN1CCC(NCc2ccc3snnc3c2)CC1 [Example 46, (4S)-4-({4-[(1,2,3-benzothiadiazol-5-ylmethyl)amino]-1-piperidinyl}methyl)-3-fluoro-4-hydroxy-4,5-dihydro-7H-pyrrolo[3,2,1-de]-1,5-naphthyridin-7-one] | ≤ 4 mg/L | ≤ 1.7 mg/L |  | 
O=c1ccc2ncc(F)c3c2n1C[C@@]3(O)CN1CCC(NCc2ccc3nnsc3c2)CC1 [Example 53, (4S)-4-({4-[(1,2,3-benzothiadiazol-6-ylmethyl)amino]-1-piperidinyl}methyl)-3-fluoro-4-hydroxy-4,5-dihydro-7H-pyrrolo[3,2,1-de]-1,5-naphthyridin-7-one] | ≤ 4 mg/L | ≤ 1.7 mg/L |  | 
O=c1ccc2ncc(Cl)c3c2n1CC3(O)CN1CCC(NCc2cc3c(cn2)OCCC3)CC1 (racemic) [Example 13, (4R/S)-3-Chloro-4-({4-[(3,4-dihydro-2H-pyrano[2,3-c]pyridin-6-ylmethyl)amino]-1-piperidinyl}methyl)-4-hydroxy-4,5-dihydro-7H-pyrrolo[3,2,1-de]-1,5-naphthyridin-7-one Dihydrochloride] | ≤ 4 mg/L |  |  | 
N#Cc1cc(CNC2CCN(C[C@]3(O)Cn4c(=O)ccc5ncc(F)c3c54)CC2)cc2c1OCC2 [Example 41, 5-{[(1-{[(4S)-3-fluoro-4-hydroxy-7-oxo-4,5-dihydro-7H-pyrrolo[3,2,1-de]-1,5-naphthyridin-4-yl]methyl}-4-piperidinyl)amino]methyl}-2,3-dihydro-1-benzofuran-7-carbonitrile] | ≤ 4 mg/L | ≤ 1.7 mg/L |  | 
O=c1ccc2ncc(F)c3c2n1C[C@@]3(O)CN1CCC(NCc2cc3c(cn2)OCCO3)CC1 [Example 1, (4S)-4-({4-[(2,3-Dihydro[1,4]dioxino[2,3-c]pyridin-7-ylmethyl)amino]-1-piperidinyl}methyl)-3-fluoro-4-hydroxy-4,5-dihydro-7H-pyrrolo[3,2,1-de]-1,5-naphthyridin-7-one (E1 Enantiomer Series) Hydrochloride] | ≤ 4 mg/L |  |  | 
O=c1ccc2ncc(F)c3c2n1C[C@@]3(O)CN1CCC(NCc2ccc3ccccc3n2)CC1 [Example 51, (4S)-3-fluoro-4-hydroxy-4-({4-[(2-quinolinylmethyl)amino]-1-piperidinyl}methyl)-4,5-dihydro-7H-pyrrolo[3,2,1-de]-1,5-naphthyridin-7-one] | ≤ 4 mg/L |  |  | 
O=c1ccc2ncc(F)c3c2n1C[C@@]3(O)CN1CCC(NCc2cc3cc(F)cc(F)c3[nH]2)CC1 [Example 54, (4S)-4-[(4-{[(5,7-difluoro-1H-indol-2-yl)methyl]amino}-1-piperidinyl)methyl]-3-fluoro-4-hydroxy-4,5-dihydro-7H-pyrrolo[3,2,1-de]-1,5-naphthyridin-7-one] | ≤ 4 mg/L | ≤ 1.7 mg/L |  | 
O=C1CSc2ccc(CNC3CCN(C[C@]4(O)Cn5c(=O)ccc6ncc(F)c4c65)CC3)nc2N1 [Example 6, (4S)-3-Fluoro-4-hydroxy-4-[(4-{[(3-oxo-3,4-dihydro-2H-pyrido[3,2-b][1,4]thiazin-6-yl)methyl]amino}-1-piperidinyl)methyl]-4,5-dihydro-7H-pyrrolo[3,2,1-de]-1,5-naphthyridin-7-one (E1 Enantiomer Series) Dihydrochloride] | ≤ 4 mg/L | ≤ 1.7 mg/L |  | 
O=c1ccc2ncc(F)c3c2n1C[C@@]3(O)CN1CCC(NCc2cc3ccccc3cn2)CC1 [Example 36, (4S)-3-fluoro-4-hydroxy-4-({4-[(3-isoquinolinylmethyl)amino]-1-piperidinyl}methyl)-4,5-dihydro-7H-pyrrolo[3,2,1-de]-1,5-naphthyridin-7-one] | ≤ 4 mg/L |  |  | 
O=c1ccc2ncc(Cl)c3c2n1CC3(O)CN1CCC(NCc2cc3c(cn2)OCS3)CC1 (racemic) [Example 15, (4R/S)-3-Chloro-4-hydroxy-4-({4-[([1,3]oxathiolo[5,4-c]pyridin-6-ylmethyl)amino]-1-piperidinyl}methyl)-4,5-dihydro-7H-pyrrolo[3,2,1-de]-1,5-naphthyridin-7-one Dihydrochloride] | ≤ 4 mg/L |  |  | 
O=c1ccc2ncc(F)c3c2n1C[C@@]3(O)CN1CCC(NCc2cc3c(nn2)SCCO3)CC1 [Example 19, (4S)-4-({4-[(6,7-Dihydro[1,4]oxathiino[3,2-c]pyridazin-3-ylmethyl)amino]-1-piperidinyl}methyl)-3-fluoro-4-hydroxy-4,5-dihydro-7H-pyrrolo[3,2,1-de]-1,5-naphthyridin-7-one (E1 Enantiomer Series) Dihydrochloride] | ≤ 4 mg/L | ≤ 1.7 mg/L |  | 
O=c1ccc2ncc(F)c3c2n1C[C@@]3(O)CN1CCC(NCc2cc3c(cn2)SCCO3)CC1 [Example 23A, Dihydrochloride] | ≤ 4 mg/L | ≤ 1.7 mg/L |  | 
O=c1ccc2ncc(F)c3c2n1CC3(F)CN1CCC(NCc2cc3c(cn2)OCCO3)CC1 (stereo not drawn) [Example 26B, 4-({4-[(2,3-Dihydro[1,4]dioxino[2,3-c]pyridin-7-ylmethyl)amino]-1-piperidinyl}methyl)-3,4-difluoro-4,5-dihydro-7H-pyrrolo[3,2,1-de]-1,5-naphthyridin-7-one Dihydrochloride(E1 Enantiomer)] |  |  |  | ≤ 4 mg/L
